pIC50: −log10 of the molar value.
target: PDHK2 (Homo sapiens (Human), UniProt Q15119); test: Biochemical activity testing of PDHK2: PDC inactivation assay; details: human rec PDHK2, porcine heart PDC, 5 μM ATP, read-out: IC50 PDHK2 (enzyme assay)
Excerpt: Biochemical Activity Testing of PDHK2: PDC Inactivation Assay
The biochemical activity assay for PDHK2 is based on the inactivation of PDC through phosphorylation by PDHK2. The assay is run in two steps: the enzymatic PDHK2 reaction in which isolated PDC is phosphorylated by PDHK2 with ATP as co-substrate and the PDC activity assay in which pyruvate and NAD are converted to acetyl-CoA and NADH. The PDC activity correlates to the increase in NADH and thereby is detectable directly via the increasing fluorescence signal (Exc 340 nm, Em 450 nm). Inhibition of PDHK2 results in a lower phosphorylation status and thereby a less decrease in activity of PDC and a stronger increase in NADH fluorescence signal.
The PDC inactivation assay is performed in Greiner 384-well microtiter plates and is used for high throughput screen. 4 μl of PDHK2 (human, rec, Carna Bioscience, 10 ng/μl-137 nM final concentration) and PDC (isolated from porcine heart, Sigma-Aldrich, 20 mU/ml final concentration) are incubated in the absence or presence of the test compound (10 dilution concentrations) for 30 min at room temperature in kinase buffer (15 mM potassium phosphate buffer, pH 7.0, 60 mM KCl, 1.5 mM DTT, 2.5 mM MgCl2, 0.0125% (w/v) BSA, 0.125% Pluronic F-68). The kinase reaction is started by the addition of 4 μl ATP substrate solution (fc 5 μM in kinase buffer). After 30 min incubation at 37° C. 40 μl of PDC reaction solution (100 mM Tris/HCl, pH 7.8, 0.5 mM EDTA, 1 mM MgCl2, 50 mM NaF, 0.25 mM Coenzyme A, 5 mM pyruvate, 1 mM NAD, 5 mM DTT, 1 mM thiamine pyrophosphate) is added. The first fluorescence measurement is performed on a Perkin Elmer Envision (Exc 340 nm, Em 450 nm). The reaction is incubated for 45 min at room temperature. Afterwards a second fluorescence measurement is performed and the PDC activity is calculated by the difference between both measurements. As full value for the PDHK2 assay the inhibitor-free PDHK2 reaction is used. The pharmacological zero value used is DCA (Sigma-Aldrich) in a final concentration of 3 mM. The inhibitory values […] were determined using either the program Symyx Assay Explorer® or Condosseo® from GeneData.

pIC50 | Compound
5.52 to 6.52 | C[C@H]1CN(C(=O)[C@@](C)(O)C(F)(F)F)Cc2cnn(-c3ccc(F)cc3F)c21 [Compound A21, (R)-1-[(S)-1-(2,4-Difluoro-phenyl)-7-methyl-1,4,6,7-tetrahydro-pyrazolo[4,3-c]pyridin-5-yl]-3,3,3-trifluoro-2-hydroxy-2-methyl-propan-1-one]
4.30 to 5.52 | C[C@H]1CN(C(=O)[C@@](C)(O)C(F)(F)F)Cc2cnn(C(C)(C)C)c21 [Compound A23, (R)-1-((S)-1-tert-Butyl-7-methyl-1,4,6,7-tetrahydro-pyrazolo[4,3-c]pyridin-5-yl)-3,3,3-trifluoro-2-hydroxy-2-methyl-propan-1-one]
5.52 to 6.52 | C[C@H]1CN(C(=O)[C@@](C)(O)C(F)(F)F)Cc2cnn(-c3ccccc3F)c21 [Compound A25, (R)-3,3,3-Trifluoro-1-[(S)-1-(2-fluoro-phenyl)-7-methyl-1,4,6,7-tetrahydro-pyrazolo[4,3-c]pyridin-5-yl]-2-hydroxy-2-methyl-propan-1-one]
4.30 to 5.52 | C[C@@H]1CN(C(=O)[C@@](C)(O)C(F)(F)F)Cc2cnn(-c3ccccc3C#N)c21 [Compound A26, 2-[(R)-7-Methyl-5-((R)-3,3,3-trifluoro-2-hydroxy-2-methyl-propionyl)-4,5,6,7-tetrahydro-pyrazolo[4,3-c]pyridin-1-yl]-benzonitrile]
5.52 to 6.52 | C[C@H]1CN(C(=O)[C@@](C)(O)C(F)(F)F)Cc2cnn(-c3ccccc3C#N)c21 [Compound A27, 2-[(S)-7-Methyl-5-((R)-3,3,3-trifluoro-2-hydroxy-2-methyl-propionyl)-4,5,6,7-tetrahydro-pyrazolo[4,3-c]pyridin-1-yl]-benzonitrile]
4.30 to 5.52 | C[C@H]1CN(C(=O)[C@@](C)(O)C(F)(F)F)Cc2cnn(-c3ncccc3F)c21 [Compound A33, (R)-3,3,3-Trifluoro-1-[(S)-1-(3-fluoro-pyridin-2-yl)-7-methyl-1,4,6,7-tetrahydro-pyrazolo[4,3-c]pyridin-5-yl]-2-hydroxy-2-methyl-propan-1-one]
5.52 to 6.52 | C[C@H]1CN(C(=O)[C@@](C)(O)C(F)(F)F)Cc2cnn(-c3ncc(F)cc3F)c21 [Compound A35, (R)-1-[(S)-1-(3,5-Difluoro-pyridin-2-yl)-7-methyl-1,4,6,7-tetrahydro-pyrazolo[4,3-c]pyridin-5-yl]-3,3,3-trifluoro-2-hydroxy-2-methyl-propan-1-one]
5.52 to 6.52 | COc1ncc(F)c(-n2ncc3c2[C@H](C)CN(C(=O)[C@@](C)(O)C(F)(F)F)C3)n1 [Compound A36, (R)-3,3,3-Trifluoro-1-[(R)-1-(5-fluoro-2-methoxy-pyrimidin-4-yl)-7-methyl-1,4,6,7-tetrahydro-pyrazolo[4,3-c]pyridin-5-yl]-2-hydroxy-2-methyl-propan-1-one]
5.52 to 6.52 | C[C@H]1CN(C(=O)[C@@](C)(O)C(F)(F)F)Cc2cnn(C3CCC(O)CC3)c21 (stereo partly drawn) [Compound A39, (R)-3,3,3-Trifluoro-2-hydroxy-1-[(S)-1-(4-hydroxy-cyclohexyl)-7-methyl-1,4,6,7-tetrahydro-pyrazolo[4,3-c]pyridin-5-yl]-2-methyl-propan-1-one]
4.30 to 5.52 | C[C@H]1CN(C(=O)[C@@](C)(O)C(F)(F)F)Cc2cnn(-c3ccc(F)cn3)c21 [Compound A41, (R)-3,3,3-Trifluoro-1-[(S)-1-(5-fluoro-pyridin-2-yl)-7-methyl-1,4,6,7-tetrahydro-pyrazolo[4,3-c]pyridin-5-yl]-2-hydroxy-2-methyl-propan-1-one]
4.30 to 5.52 | C[C@H]1CN(C(=O)[C@@](C)(O)C(F)(F)F)Cc2cnc(-c3ccc(F)cc3)n21 [Compound A53, (R)-3,3,3-Trifluoro-1-[(S)-3-(4-fluoro-phenyl)-5-methyl-5,6-dihydro-8H-imidazo[1,5-a]pyrazin-7-yl]-2-hydroxy-2-methyl-propan-1-one]
5.52 to 6.52 | C[C@H]1CN(C(=O)[C@@](C)(O)C(F)(F)F)Cc2cnc(-c3ccc(F)cc3F)n21 [Compound A55, (R)-1-[(S)-3-(2,4-Difluoro-phenyl)-5-methyl-5,6-dihydro-8H-imidazo[1,5-a]pyrazin-7-yl]-3,3,3-trifluoro-2-hydroxy-2-methyl-propan-1-one]

From patent US10526325B2, “Bicyclic heterocyclic derivatives” (Merck Patent GmbH, priority 2015, dated 2020)
